What was measured:
[1] = tested on: durch Apomorphin verursachten Kletterns; experiment: Inhibition of apomorphine-induced climbing in mice (apomorphine antagonism); format: in vivo, Mäusen; settings: test substance given 30 min (i.p.) or 60 min (p.o.) before apomorphine, dose of test substance not given
Procedure: Test auf biologische Aktivität von Pseurotin A und D: • Die Wirkung der Verbindungen der Formel I und 11 als Apomorphin Antagonisten wird an Mäusen getestet. Hierzu wird zunächst Apomorphin als 1 %ige Lösung (Verdünnungsmittel: Tylose, z. B. Methocel, Hoechst AG, Frankfurt, Deutschland)) einmalig […] injiziert. Die Dosis ist so gewählt, daß sie bei 95 % der Mäuse für ca. 30 Minuten eine anhaltende Klettertätigkeit auslöst (1,5 mg Apomorphin/kg Maus; subcutane Injektion). Tiere, die noch vor der Apomorphingabe eine konstante Klettertätigkeit aufweisen, werden nicht im Test berücksichtigt. Pseurotin A und/oder D wird 30 bzw. 60 Min. vor Apomorphin appliziert (i.p. bzw. p.o.). Es wird viermal abgelesen: unmittelbar vor sowie 10,20 und 30 Min. nach Apomorphin-Injektion. Dabei wird das Kletterverhalten pro Maus beurteilt: • Testkriterium ist, ob eine Hemmung des durch Apomorphin verursachten Kletterns eintritt.

[2] = Stability in the solid state and in solution; format: physicochemical; settings: for Stabilität im festen Zustand: solid state; for Stabilität in Lösungen: solutions, pH range between 3 and 8, in particular 5 and 7
Excerpt: Die Verbindungen der Formel 1 oder 11 ist im festen Zustand und in Lösungen im pH-Bereich zwischen 3 und 8, insbesondere 5 und 7, stabil und läßt sich damit in übliche galenische Zubereitungen einarbeiten.

[3] = Solubility in organic solvents; format: physicochemical; settings: in CH2C12, CHCl3, Essigsäureethylester, Aceton, Ethanol und Isopropanol; isolated as amorphous solid
Excerpt: Die Pseurotine A und D wurden als amorpher Feststoff isoliert und sind z.B. löslich in CH2C12, CHCl3, Essigsäureethylester, Aceton, Ethanol und Isopropanol.

[4] = 10 min after apomorphine (1,5 mg Apomorphin/kg Maus), seen in the majority (Mehrzahl) of treated mice
[5] = 20 min after apomorphine (1,5 mg Apomorphin/kg Maus)

SMILES	Kletterverhalten pro Maus (Hemmung des durch Apomorphin verursachten Kletterns) [1, 4]	Kletterverhalten pro Maus (Hemmung des durch Apomorphin verursachten Kletterns) [1, 5]	Stabilität im festen Zustand [2]	Stabilität in Lösungen [2]	Löslichkeit [3]
CC/C=C\[C@H](O)[C@H](O)C1=C(C)C(=O)[C@]2(O1)C(=O)N[C@@](OC)(C(=O)c1ccccc1)[C@@H]2O [Pseurotin A]	nur noch 1 oder 2 Pfoten an der Wand	nahezu alle Tiere deutliche Symptome in Form der Kletterhemmung (4 Pfoten am Boden)	stabil	stabil	löslich
CCC(O)C=C[C@H](O)C1=C(C)C(=O)[C@]2(O1)C(=O)N[C@@](OC)(C(=O)c1ccccc1)[C@@H]2O (stereo partly shown) [Pseurotin D]	nur noch 1 oder 2 Pfoten an der Wand	nahezu alle Tiere deutliche Symptome in Form der Kletterhemmung (4 Pfoten am Boden)	stabil	stabil	löslich
